Among the test systems are DMS-273; SK-MEL-2; SF-539; HOP-18; HCC 2998; M19-MEL; A498; KM-20L2; MCF7; RXF 393; DLD-1; TK-10; ACHN; NCI-H226; 786-0; SR; M14.
Assay in all cases: inhibition of tumour cell growth, NCI panel, 48 h

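Method: 48-hour compound exposure of cells in 96-well plates, five concentrations, linear interpolation of endpoints. GI50 = concentration required for 50% inhibition of growth.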 Active and inactive are the calls of the source. No stated cut-off is given here; in the data, active = GI50 up to about 1.1 µM and inactive = higher.

Consider `c1ccc2c3c(ccc2c1)-c1[nH]ncc1CCO3`, for which the GI50 with DMS-273 is 40.5 µM (inactive); in the test on SK-MEL-2 it was 36.1 µM (inactive); with SF-539 it was 25 µM (inactive); in the test on HOP-18, 61.4 µM (inactive); in the test on HCC 2998 it was 35.6 µM (inactive); with M19-MEL it was 34 µM (inactive). The GI50 in the test on A498 is > 56 µM (inactive); with KM-20L2, 34.5 µM (inactive); in the test on MCF7, 32.9 µM (inactive); with RXF 393 it was 33.3 µM (inactive); in the test on DLD-1 it was 34.8 µM (inactive).

For `Cc1ccc(N2C(=O)/C(=C3\SC(C(N)=O)=C(N)N3c3ccccc3)SC2=S)cc1`, the GI50 with TK-10 was > 100 µM (inactive); with ACHN, 66.1 µM (inactive); with NCI-H226, 37.3 µM (inactive); in the test on SF-539, 22.8 µM (inactive); in the test with HOP-18 it was 37.7 µM (inactive); in the test on HCC 2998, > 100 µM (inactive). Further, the values for the GI50 with M19-MEL, in the test on A498 and in the test on DLD-1 were > 100 µM (inactive), 4.73 µM (inactive) and 90.8 µM (inactive), respectively.

With `CN1NC(c2ccc(Cl)cc2)=C(C#N)C(=O)CC1c1ccccc1` (centres undefined), the GI50 in the test on TK-10 was > 100 µM (inactive); with 786-0, > 100 µM (inactive); with ACHN, > 100 µM (inactive); in the test on NCI-H226, > 10 µM (inactive); with DMS-273, > 100 µM (inactive); in the test with SK-MEL-2, > 100 µM (inactive). The GI50 is 29.9 µM (inactive) in the test with HOP-18; > 100 µM (inactive) in the test on SR; > 100 µM (inactive) in the test on A498; > 100 µM (inactive) in the test with KM-20L2; > 100 µM (inactive) in the test with RXF 393; > 100 µM (inactive) with DLD-1.

In the case of `COC(=O)c1cccc(N[C@@H]2c3cc4c(cc3C(c3cc(OC)c(O)c(OC)c3)[C@H]3C(=O)OCC32)OCO4)c1` (some centres undefined), the GI50 in the test on NCI-H226 is 0.662 µM (active); in the test with DMS-273, 0.362 µM (active); with SK-MEL-2, 4.69 µM (inactive); in the test on SF-539, 0.528 µM (active); in the test with HOP-18, 2.62 µM (inactive); in the test on HCC 2998, 2.19 µM (inactive). Besides, the GI50 in the test with M19-MEL is 1.28 µM (inactive); in the test on A498, 0.635 µM (active); with KM-20L2 it was 2.75 µM (inactive); in the test with MCF7 it was 0.442 µM (active); in the test on RXF 393, 1.33 µM (inactive); in the test with DLD-1 it was 1.89 µM (inactive).

`O=C(Cc1nc2ccc(C(=O)c3ccccc3)cc2nc1O)C(=O)Nc1nc2ccccc2[nH]1`: the GI50 in the test on TK-10 is 49.3 µM (inactive); in the test on 786-0, > 100 µM (inactive); in the test on ACHN, 86.7 µM (inactive); in the test on DMS-273 it was 20.9 µM (inactive); with SF-539 it was 71 µM (inactive); in the test on HOP-18, 77.1 µM (inactive). The GI50 with HCC 2998 was > 100 µM (inactive); in the test with M19-MEL, 56.1 µM (inactive); in the test with SR it was 11.7 µM (inactive); with KM-20L2, 63.5 µM (inactive); in the test on M14, 82.6 µM (inactive).

Take `Cc1nc2ccccc2c(=O)n1Nc1ccc(C(=O)O)cc1`: the GI50 in the test with NCI-H226, with DMS-273, in the test on SK-MEL-2, in the test on SF-539, in the test on HOP-18 and in the test on HCC 2998 was > 100 µM (inactive) each time. Further, the GI50 with M19-MEL, with A498, in the test with KM-20L2, with MCF7, in the test on RXF 393 and in the test on DLD-1 was > 100 µM (inactive) in each case.

`CC(C)[C@](O)(C(=O)OCC1=CCN2CC[C@@H](O)[C@@H]12)[C@H](C)O`: the GI50 in the test on NCI-H226, in the test on DMS-273, in the test with SK-MEL-2, with SF-539, in the test with HOP-18 and with HCC 2998 was > 375 µM (inactive) throughout. For the same compound, the GI50 is > 255 µM (inactive) in the test on M19-MEL; > 375 µM (inactive) in the test on A498; > 375 µM (inactive) in the test on KM-20L2; > 375 µM (inactive) in the test on MCF7; > 375 µM (inactive) in the test with RXF 393; > 375 µM (inactive) with DLD-1.

Consider `COc1cccc(NC(=O)CSc2nnc(-c3ccc(NC(C)=O)cc3)o2)c1`, for which the GI50 in the test with TK-10, in the test with 786-0, with ACHN, with NCI-H226, in the test with DMS-273 and in the test on SK-MEL-2 was > 100 µM (inactive) throughout. Moreover, the GI50 is 14 µM (inactive) in the test with HOP-18; > 100 µM (inactive) in the test on M19-MEL; 90.2 µM (inactive) in the test on SR; 94.6 µM (inactive) in the test with KM-20L2; > 100 µM (inactive) in the test with RXF 393; > 100 µM (inactive) in the test with DLD-1. Further, the GI50 with M14 was > 100 µM (inactive).

As to `O=C1C(Br)=CC2([N+](=O)[O-])CCNC3=C(C4=NCCc5c[nH]c(c54)C3=O)C2=C1Br` (centres undefined), the GI50 with NCI-H226 is 2.38 µM (inactive); with DMS-273, 1.72 µM (inactive); in the test on SK-MEL-2, 1.65 µM (inactive); in the test on SF-539, 2.11 µM (inactive); with HOP-18 it was 14.4 µM (inactive); in the test on HCC 2998, 2.62 µM (inactive). Also, the GI50 is 5.06 µM (inactive) in the test on A498; 0.414 µM (active) in the test on KM-20L2; 0.0562 µM (active) in the test with MCF7; 2.39 µM (inactive) with RXF 393; 0.364 µM (active) with DLD-1.

For the compound `O=C(c1ccccc1)c1nc2ccc(Cl)cc2c2c1CCCO2`, the GI50 in the test with TK-10, with ACHN, in the test with NCI-H226, in the test with DMS-273, in the test on SK-MEL-2 and in the test on HOP-18 was > 100 µM (inactive) throughout. For the same compound, the GI50 in the test on HCC 2998 is > 100 µM (inactive); with M19-MEL, > 100 µM (inactive); with SR, > 100 µM (inactive); with KM-20L2, > 100 µM (inactive); in the test on RXF 393, 56.2 µM (inactive); in the test on M14, > 100 µM (inactive).

For the compound `NC(=O)CCC(NCc1c2ccccc2[n+]([O-])c2ccccc12)C(=O)O` (centres undefined), the GI50 in the test with TK-10 is > 100 µM (inactive); with 786-0, 70.8 µM (inactive); in the test with ACHN, 78 µM (inactive); with NCI-H226 it was 60.1 µM (inactive); in the test on DMS-273, 56.8 µM (inactive); with SK-MEL-2, 95.9 µM (inactive). Besides, the GI50 was 33.5 µM (inactive) with HOP-18; > 100 µM (inactive) in the test with HCC 2998; 95.5 µM (inactive) in the test on M19-MEL; > 100 µM (inactive) with A498; 52.6 µM (inactive) with KM-20L2; 46.9 µM (inactive) in the test with DLD-1. In addition, in the test on M14, the GI50 is > 100 µM (inactive).

With `Cc1ccc(S(=O)(=O)OC[C@@H]2CO2)cc1`, the GI50 is 44.6 µM (inactive) with TK-10; > 100 µM (inactive) with 786-0; > 100 µM (inactive) in the test on ACHN; > 100 µM (inactive) with NCI-H226; > 100 µM (inactive) with DMS-273; > 100 µM (inactive) in the test with SK-MEL-2. In addition, the GI50 in the test on SF-539, in the test on HOP-18, in the test on HCC 2998, with M19-MEL, in the test on SR and in the test with A498 was > 100 µM (inactive) throughout. For the same compound, the GI50 in the test with KM-20L2, in the test on RXF 393, in the test on DLD-1 and with M14 was > 100 µM (inactive) throughout.

(Values after ChEMBL document CHEMBL1201862, “PubChem BioAssay data set” (2004).)
